Experimental data taken from patent US10765114B2, “4-amino-6-(pyridyl and 2-substitutedphenyl)-picolinates and 6-amino-2-(pyridyl and 2-substitutedphenyl)-pyrimidine-4-carboxylates and their use as herbicides” (Dow AgroSciences LLC, priority 2013, dated 2020).
Like-named read-outs stand apart in the source and are kept apart here.

Columns and labels:
[1] = tested on: Key Broadleaf Weed and Crop Species; assay: Post-Emergent Test II (Table 5); type: in vivo; conditions: post-emergence, 336 h; for pest or weed control at 70 g/ha: application rate 70 (kg ai/ha; footnote: g ai/ha); for pest or weed control at 140 g/ha: application rate 140 (kg ai/ha; footnote: g ai/ha)
Procedure, shortened: (§1)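 Plants at first or second true-leaf stage, grown 7-21 days in greenhouse, were sprayed post-emergence at 187 L/ha with compounds in acetone/DMSO/water/crop oil/surfactant mixture at the high rate and ½× to 1/16× dilutions. Injury scored visually after 14 days, 0 (none) to 100% (complete kill), versus untreated plants.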

[2] = tested on: Key Grass and Sedge Weeds as well as Grass Crops; assay: Post-Emergent Test II (Table 6); type: in vivo; conditions: post-emergence, 336 h, 14 days after application; for pest or weed control at 70 g/ha: 70 g ai/ha; for pest or weed control at 140 g/ha: 140 g ai/ha
Procedure, shortened: as §1

[3] = Abutilon theophrasti, ABUTH: velvetleaf (Abutilon theophrasti), read-out: Visual Growth Reduction (%) 14 Days After Application ABUTH
[4] = Amaranthus retroflexus, AMARE: redroot pigweed (Amaranthus retroflexus), read-out: Visual Growth Reduction (%) 14 Days After Application AMARE
[5] = Brassica napus, BRSSS: oilseed rape, canola (Brassica napus), read-out: Visual Growth Reduction (%) 14 Days After Application BRSSS
[6] = Chenopodium album, CHEAL: lambsquarters (Chenopodium album), read-out: Visual Growth Reduction (%) 14 Days After Application CHEAL
[7] = Euphorbia heterophylla, EPHHL: wild poinsettia (Euphorbia heterophylla), read-out: Visual Growth Reduction (%) 14 Days After Application EPHHL
[8] = Helianthus annuus, HELAN: sunflower (Helianthus annuus), read-out: Visual Growth Reduction (%) 14 Days After Application HELAN
[9] = Viola tricolor, VIOTR: wild pansy (Viola tricolor), read-out: Visual Growth Reduction (%) 14 Days After Application VIOTR
[10] = CYPSS, read-out: Visual Growth Reduction (%) 14 Days After Application CYPSS
[11] = DIGSA: crabgrass (Digitaria sanguinalis), read-out: Visual Growth Reduction (%) 14 Days After Application DIGSA
[12] = ECHSS, read-out: Visual Growth Reduction (%) 14 Days After Application ECHSS
[13] = ORYSS (crop), read-out: Visual Growth Reduction (%) 14 Days After Application ORYSS
[14] = SETFA: giant foxtail (Setaria faberi), read-out: Visual Growth Reduction (%) 14 Days After Application SETFA
[15] = SORVU: grain sorghum (Sorghum vulgare), read-out: Visual Growth Reduction (%) 14 Days After Application SORVU
[16] = TRZSS (crop), read-out: Visual Growth Reduction (%) 14 Days After Application TRZSS
[17] = ZEAMX: maize, corn (Zea mays), read-out: Visual Growth Reduction (%) 14 Days After Application ZEAMX

COC(=O)c1nc(-c2c(F)cc(Cl)c(F)c2C)cc(N)c1Cl [Compound 38, methyl 4-amino-3-chloro-6-(4-chloro-3,6-difluoro-2-methylphenyl)picolinate]
melting point: 144 to 146 °C
pest or weed control at 70 g/ha [1, 3]: 95 to 100%
pest or weed control at 140 g/ha [1, 3]: 95 to 100%
pest or weed control at 70 g/ha [1, 4]: 95 to 100%
pest or weed control at 140 g/ha [1, 4]: 95 to 100%
pest or weed control at 70 g/ha [1, 5]: 95 to 100%
pest or weed control at 140 g/ha [1, 5]: 95 to 100%
pest or weed control at 70 g/ha [1, 6]: 85 to 94%
pest or weed control at 140 g/ha [1, 6]: 95 to 100%
pest or weed control at 70 g/ha [1, 7]: 30 to 44%
pest or weed control at 140 g/ha [1, 7]: 45 to 59%
pest or weed control at 70 g/ha [1, 8]: 75 to 84%
pest or weed control at 140 g/ha [1, 8]: 95 to 100%
pest or weed control at 70 g/ha [1, 9]: 75 to 84%
pest or weed control at 140 g/ha [1, 9]: 85 to 94%
pest or weed control at 70 g/ha [2, 10]: 0 to 29%
pest or weed control at 140 g/ha [2, 10]: 0 to 29%
pest or weed control at 70 g/ha [2, 11]: 0 to 29%
pest or weed control at 140 g/ha [2, 11]: 0 to 29%
pest or weed control at 70 g/ha [2, 12]: 0 to 29%
pest or weed control at 140 g/ha [2, 12]: 0 to 29%
pest or weed control at 70 g/ha [2, 13]: 0 to 29%
pest or weed control at 140 g/ha [2, 13]: 0 to 29%
pest or weed control at 70 g/ha [2, 14]: 0 to 29%
pest or weed control at 140 g/ha [2, 14]: 0 to 29%
pest or weed control at 70 g/ha [2, 15]: 0 to 29%
pest or weed control at 140 g/ha [2, 15]: 0 to 29%
pest or weed control at 70 g/ha [2, 16]: 45 to 59%
pest or weed control at 140 g/ha [2, 16]: 60 to 74%
pest or weed control at 70 g/ha [2, 17]: 0 to 29%
pest or weed control at 140 g/ha [2, 17]: 0 to 29%

COC(=O)c1nc(-c2ccc(OC(F)F)nc2)c(F)c(N)c1Cl [Compound 71]
melting point: 134 to 136 °C
pest or weed control at 70 g/ha [1, 3]: 85 to 94%
pest or weed control at 140 g/ha [1, 3]: 85 to 94%
pest or weed control at 70 g/ha [1, 4]: 0 to 29%
pest or weed control at 140 g/ha [1, 4]: 0 to 29%
pest or weed control at 70 g/ha [1, 5]: 30 to 44%
pest or weed control at 140 g/ha [1, 5]: 45 to 59%
pest or weed control at 70 g/ha [1, 6]: 85 to 94%
pest or weed control at 140 g/ha [1, 6]: 85 to 94%
pest or weed control at 70 g/ha [1, 7]: 95 to 100%
pest or weed control at 140 g/ha [1, 7]: 95 to 100%
pest or weed control at 70 g/ha [1, 8]: 85 to 94%
pest or weed control at 140 g/ha [1, 8]: 85 to 94%
pest or weed control at 70 g/ha [1, 9]: 0 to 29%
pest or weed control at 140 g/ha [1, 9]: 0 to 29%
pest or weed control at 70 g/ha [2, 10]: 0 to 29%
pest or weed control at 140 g/ha [2, 10]: 45 to 59%
pest or weed control at 70 g/ha [2, 11]: 75 to 84%
pest or weed control at 140 g/ha [2, 11]: 60 to 74%
pest or weed control at 70 g/ha [2, 12]: 60 to 74%
pest or weed control at 140 g/ha [2, 12]: 75 to 84%
pest or weed control at 70 g/ha [2, 13]: 0 to 29%
pest or weed control at 140 g/ha [2, 13]: 0 to 29%
pest or weed control at 70 g/ha [2, 14]: 75 to 84%
pest or weed control at 140 g/ha [2, 14]: 85 to 94%
pest or weed control at 70 g/ha [2, 15]: 60 to 74%
pest or weed control at 140 g/ha [2, 15]: 75 to 84%
pest or weed control at 70 g/ha [2, 16]: 45 to 59%
pest or weed control at 140 g/ha [2, 16]: 45 to 59%
pest or weed control at 70 g/ha [2, 17]: 0 to 29%
pest or weed control at 140 g/ha [2, 17]: 60 to 74%

COc1nc(C(F)(F)F)ccc1-c1nc(C(=O)O)c(Cl)c(N)c1F [Compound 2, 4-amino-5-chloro-3-fluoro-2′-methoxy-6′-(trifluoromethyl)-[2,3′-bipyridine]-6-carboxylic acid]
melting point: 133 to 134 °C
pest or weed control at 70 g/ha [1, 3]: 0 to 29%
pest or weed control at 140 g/ha [1, 3]: 0 to 29%
pest or weed control at 70 g/ha [1, 4]: 0 to 29%
pest or weed control at 140 g/ha [1, 4]: 0 to 29%
pest or weed control at 70 g/ha [1, 5]: 30 to 44%
pest or weed control at 140 g/ha [1, 5]: 45 to 59%
pest or weed control at 70 g/ha [1, 6]: 0 to 29%
pest or weed control at 140 g/ha [1, 6]: 0 to 29%
pest or weed control at 70 g/ha [1, 7]: 0 to 29%
pest or weed control at 140 g/ha [1, 7]: 0 to 29%
pest or weed control at 70 g/ha [1, 8]: 60 to 74%
pest or weed control at 140 g/ha [1, 8]: 60 to 74%
pest or weed control at 70 g/ha [1, 9]: 0 to 29%
pest or weed control at 140 g/ha [1, 9]: 0 to 29%
pest or weed control at 70 g/ha [2, 10]: 0 to 29%
pest or weed control at 140 g/ha [2, 10]: 0 to 29%
pest or weed control at 70 g/ha [2, 11]: 0 to 29%
pest or weed control at 140 g/ha [2, 11]: 0 to 29%
pest or weed control at 70 g/ha [2, 12]: 0 to 29%
pest or weed control at 140 g/ha [2, 12]: 0 to 29%
pest or weed control at 70 g/ha [2, 13]: 0 to 29%
pest or weed control at 140 g/ha [2, 13]: 0 to 29%
pest or weed control at 70 g/ha [2, 14]: 0 to 29%
pest or weed control at 140 g/ha [2, 14]: 0 to 29%
pest or weed control at 70 g/ha [2, 15]: 0 to 29%
pest or weed control at 140 g/ha [2, 15]: 0 to 29%
pest or weed control at 70 g/ha [2, 16]: 0 to 29%
pest or weed control at 140 g/ha [2, 16]: 0 to 29%
pest or weed control at 70 g/ha [2, 17]: 0 to 29%
pest or weed control at 140 g/ha [2, 17]: 0 to 29%
